From US8501783B2, “Conformationally restricted urea inhibitors of soluble epoxide hydrolase” (The Regents of the University of California, priority 2006, dated 2013)
Like-named read-outs stand apart in the source and are kept apart here. Each block holds one compound with its values, some of them ahead of it.

What was measured:
[1] = target: human sEH (Homo sapiens (Human), UniProt P34913); assay: Inhibition of human soluble epoxide hydrolase (IC50; one of three substrate methods); format: biochemical;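 also: enzyme expressed in baculovirus and affinity-purified, assays run in triplicate, with substrate and read-out differing among the three methods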
[2] = Solubility in oil of the dosing preparation (compound in Crisco); format: physicochemical; conditions: appearance in oil, in parentheses after compound number
Source text: The dogs are fed immediately thereafter.

[3] = Pharmacokinetic screening in dogs, oral administration, plasma LC-MS/MS; conditions: for LC/MS analysis, plasma level at time 0 / LC/MS analysis, plasma level at time 15 / LC/MS analysis, plasma level at time 30 / LC/MS analysis, plasma level at time 60 / LC/MS analysis, plasma level at time 120 / LC/MS analysis, plasma level at time 180 / LC/MS analysis, plasma level at time 240 / LC/MS analysis, plasma level at time 300 / LC/MS analysis, plasma level at time 360 / LC/MS analysis, plasma level at time 480 / LC/MS analysis, plasma level at time 1440: single oral dose (0.3 mg/kg per FIG. 1); for AUC: dog, plasma, po; for AUCINF_D_pred: dose-normalised

Sequence of human sEH (P34913 whole entry): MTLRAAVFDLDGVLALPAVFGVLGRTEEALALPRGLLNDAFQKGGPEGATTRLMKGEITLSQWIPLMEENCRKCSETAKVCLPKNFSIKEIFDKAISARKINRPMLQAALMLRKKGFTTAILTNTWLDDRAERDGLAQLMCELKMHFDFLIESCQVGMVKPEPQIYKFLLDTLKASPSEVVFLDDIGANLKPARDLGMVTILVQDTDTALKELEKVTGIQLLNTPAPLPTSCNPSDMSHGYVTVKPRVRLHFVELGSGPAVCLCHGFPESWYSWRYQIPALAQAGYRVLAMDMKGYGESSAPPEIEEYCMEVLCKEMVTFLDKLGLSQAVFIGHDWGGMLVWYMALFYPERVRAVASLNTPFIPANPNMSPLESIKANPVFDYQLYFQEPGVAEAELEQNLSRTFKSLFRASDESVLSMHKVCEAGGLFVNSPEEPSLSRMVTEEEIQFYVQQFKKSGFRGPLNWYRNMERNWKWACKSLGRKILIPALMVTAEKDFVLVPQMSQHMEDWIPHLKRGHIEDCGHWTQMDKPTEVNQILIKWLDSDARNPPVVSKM

solubility in oil [2]: 1555 (Opaque)
AUC ([3]; 0.3 mg/kg): 6.5 µM·h
AUCINF_D_pred ([3]; dogs, oral): 13002825 kg·nM·min/mg
LC/MS analysis, plasma level at time 0 ([3]; dogs, time 0 min): 0.00
LC/MS analysis, plasma level at time 15 ([3]; dogs, time 15 min): 16.07
LC/MS analysis, plasma level at time 30 ([3]; dogs, time 30 min): 45.76
LC/MS analysis, plasma level at time 60 ([3]; dogs, time 60 min): 100.35
LC/MS analysis, plasma level at time 120 ([3]; dogs, time 120 min): 216.91
LC/MS analysis, plasma level at time 180 ([3]; dogs, time 180 min): 260.79
LC/MS analysis, plasma level at time 240 ([3]; dogs, time 240 min): 268.90
LC/MS analysis, plasma level at time 300 ([3]; dogs, time 300 min): 302.64
LC/MS analysis, plasma level at time 480 ([3]; dogs, time 480 min): 320.45
LC/MS analysis, plasma level at time 1440 ([3]; dogs, time 1440 min): 266.29
Compound: CC(=O)N1CCC(NC(=O)Nc2ccc(OC(F)(F)F)cc2)CC1 [Compound 1555, 1-(1-Acetyl-piperidin-4-yl)-3-(4-trifluoromethoxy-phenyl)-urea]

solubility in oil [2]: 1606 (Suspension)
AUC ([3]; 0.3 mg/kg): 0.0433 µM·h
AUCINF_D_pred ([3]; dogs, oral): 8553 kg·nM·min/mg
LC/MS analysis, plasma level at time 0 ([3]; dogs, time 0 min): 0.00
LC/MS analysis, plasma level at time 15 ([3]; dogs, time 15 min): 0.00
LC/MS analysis, plasma level at time 30 ([3]; dogs, time 30 min): 1.61
LC/MS analysis, plasma level at time 60 ([3]; dogs, time 60 min): 4.82
LC/MS analysis, plasma level at time 120 ([3]; dogs, time 120 min): 9.37
LC/MS analysis, plasma level at time 180 ([3]; dogs, time 180 min): 10.98
LC/MS analysis, plasma level at time 240 ([3]; dogs, time 240 min): 6.83
LC/MS analysis, plasma level at time 300 ([3]; dogs, time 300 min): 5.62
LC/MS analysis, plasma level at time 360 ([3]; dogs, time 360 min): 3.21
LC/MS analysis, plasma level at time 480 ([3]; dogs, time 480 min): 1.47
Compound: O=C(NC1CCN(C(=O)C(F)(F)F)CC1)NC12CC3CC(CC(C3)C1)C2 [Compound 1606]

IC50 ([1]; recombinant human sEH): 4210 nM
Compound: O=C(N1CCC(NC(=O)C23CC4CC(CC(C4)C2)C3)CC1)C(F)(F)F [Compound 1643, Adamantane-1-carboxylic acid [1-(2,2,2-trifluoro-acetyl)-piperidin-4-yl]-amide]

IC50 ([1]; recombinant human sEH): 1.4 nM
AUC ([3]; 0.3 mg/kg): 0.0817 µM·h
Compound: CS(=O)(=O)N1CCC(NC(=O)NC23CC4CC(CC(C4)C2)C3)CC1 [Compound 1701, 1-Adamantan-1-yl-3-(1-methanesulfonyl-piperidin-4-yl)-urea]

IC50 ([1]; recombinant human sEH): 0.8 nM
Compound: CN(C)c1cccc2c(S(=O)(=O)N3CCC(NC(=O)Nc4ccc(OC(F)(F)F)cc4)CC3)cccc12 [Compound 1710, 1-[1-(5-dimethylamino-naphthalene-1-sulfonyl)-piperidin-4-yl]-3-(4-trifluoromethoxy-phenyl)-urea]

IC50 ([1]; recombinant human sEH): 0.4 nM
Compound: Cc1ccc(S(=O)(=O)N2CCC(NC(=O)Nc3ccc(OC(F)(F)F)cc3)CC2)cc1 [Compound 1711, 1-[1-(Toluene-4-sulfonyl)-piperidin-4-yl]-3-(4-trifluoromethoxy-phenyl)-urea]

Second part, the compound before the results:

Compound: O=C(NCC1CCN(C(=O)c2ccccc2)CC1)NC12CC3CC(CC(C3)C1)C2 [Compound 1121, N-((1-benzoylpiperidin-4-yl)methyl)-N′-(adamant-1-yl)urea]
IC50 ([1]; recombinant human sEH): 3.2 nM
solubility in oil [2]: 1121 (Not dissolved)
LC/MS analysis, plasma level at time 0 ([3]; dogs, time 0 min): 0.00
LC/MS analysis, plasma level at time 15 ([3]; dogs, time 15 min): 4.86
LC/MS analysis, plasma level at time 30 ([3]; dogs, time 30 min): 3.81
LC/MS analysis, plasma level at time 60 ([3]; dogs, time 60 min): 1.98
LC/MS analysis, plasma level at time 120 ([3]; dogs, time 120 min): 0.42
LC/MS analysis, plasma level at time 180 ([3]; dogs, time 180 min): 0.16
LC/MS analysis, plasma level at time 240 ([3]; dogs, time 240 min): 0.06
LC/MS analysis, plasma level at time 300 ([3]; dogs, time 300 min): 0.05
LC/MS analysis, plasma level at time 360 ([3]; dogs, time 360 min): 0.03
LC/MS analysis, plasma level at time 480 ([3]; dogs, time 480 min): 0.03
LC/MS analysis, plasma level at time 1440 ([3]; dogs, time 1440 min): 0.04

Compound: CC(=O)N1CCC(NC(=O)NC23CC4CC(CC(C4)C2)C3)CC1 [Compound 1153, N-(1-acetylpiperidin-4-yl)-N′-(adamant-1-yl)urea]
solubility in oil [2]: 1153 (Opaque)
AUC ([3]; 0.3 mg/kg): 0.597 µM·h
plasma level, in solution at 0.1 mg/kg dose, time 0 ([3]; dogs, oral, 0.1 mg/kg, time 0 min): 0.31
plasma level, in solution at 0.1 mg/kg dose, time 15 ([3]; dogs, oral, 0.1 mg/kg, time 15 min): 5.33
plasma level, in solution at 0.1 mg/kg dose, time 30 ([3]; dogs, oral, 0.1 mg/kg, time 30 min): 19.59
plasma level, in solution at 0.1 mg/kg dose, time 60 ([3]; dogs, oral, 0.1 mg/kg, time 60 min): 56.74
plasma level, in solution at 0.1 mg/kg dose, time 120 ([3]; dogs, oral, 0.1 mg/kg, time 120 min): 106.43
plasma level, in solution at 0.1 mg/kg dose, time 180 ([3]; dogs, oral, 0.1 mg/kg, time 180 min): 100.94
plasma level, in solution at 0.1 mg/kg dose, time 240 ([3]; dogs, oral, 0.1 mg/kg, time 240 min): 75.71
plasma level, in solution at 0.1 mg/kg dose, time 300 ([3]; dogs, oral, 0.1 mg/kg, time 300 min): 44.51
plasma level, in solution at 0.1 mg/kg dose, time 360 ([3]; dogs, oral, 0.1 mg/kg, time 360 min): 29.15
plasma level, in solution at 0.1 mg/kg dose, time 480 ([3]; dogs, oral, 0.1 mg/kg, time 480 min): 13.01
plasma level, in solution at 0.1 mg/kg dose, time 1440 ([3]; dogs, oral, 0.1 mg/kg, time 1440 min): 0.00
plasma level, in solution at 0.3 mg/kg dose, time 0 ([3]; dogs, oral, 0.3 mg/kg, time 0 min): 0.00
plasma level, in solution at 0.3 mg/kg dose, time 15 ([3]; dogs, oral, 0.3 mg/kg, time 15 min): 288.97
plasma level, in solution at 0.3 mg/kg dose, time 30 ([3]; dogs, oral, 0.3 mg/kg, time 30 min): 276.16
plasma level, in solution at 0.3 mg/kg dose, time 60 ([3]; dogs, oral, 0.3 mg/kg, time 60 min): 241.03
plasma level, in solution at 0.3 mg/kg dose, time 120 ([3]; dogs, oral, 0.3 mg/kg, time 120 min): 107.19
plasma level, in solution at 0.3 mg/kg dose, time 180 ([3]; dogs, oral, 0.3 mg/kg, time 180 min): 56.41
plasma level, in solution at 0.3 mg/kg dose, time 240 ([3]; dogs, oral, 0.3 mg/kg, time 240 min): 26.42
plasma level, in solution at 0.3 mg/kg dose, time 300 ([3]; dogs, oral, 0.3 mg/kg, time 300 min): 20.81
plasma level, in solution at 0.3 mg/kg dose, time 360 ([3]; dogs, oral, 0.3 mg/kg, time 360 min): 10.10
plasma level, in solution at 0.3 mg/kg dose, time 480 ([3]; dogs, oral, 0.3 mg/kg, time 480 min): 4.66
plasma level, in solution at 0.3 mg/kg dose, time 1440 ([3]; dogs, oral, 0.3 mg/kg, time 1440 min): 0.00
AUCINF_D_pred ([3]; dogs, oral): 119214 kg·nM·min/mg
LC/MS analysis, plasma level at time 0 ([3]; dogs, time 0 min): 0.00
LC/MS analysis, plasma level at time 15 ([3]; dogs, time 15 min): 288.97
LC/MS analysis, plasma level at time 30 ([3]; dogs, time 30 min): 276.16
LC/MS analysis, plasma level at time 60 ([3]; dogs, time 60 min): 2411.03
LC/MS analysis, plasma level at time 120 ([3]; dogs, time 120 min): 107.19
LC/MS analysis, plasma level at time 180 ([3]; dogs, time 180 min): 56.41
LC/MS analysis, plasma level at time 240 ([3]; dogs, time 240 min): 26.42
LC/MS analysis, plasma level at time 300 ([3]; dogs, time 300 min): 20.81
LC/MS analysis, plasma level at time 360 ([3]; dogs, time 360 min): 10.10
LC/MS analysis, plasma level at time 480 ([3]; dogs, time 480 min): 4.66
LC/MS analysis, plasma level at time 1440 ([3]; dogs, time 1440 min): 0.00

Compound: CC(=O)N1CCC(NC(=O)CC23CC4CC(CC(C4)C2)C3)CC1 [Compound 1642]
IC50 ([1]; recombinant human sEH): 275 nM
AUC ([3]; 0.3 mg/kg): 0.0967 µM·h

Compound: O=C(CC12CC3CC(CC(C3)C1)C2)NC1CCN(C(=O)C(F)(F)F)CC1 [Compound 1644]
IC50 ([1]; recombinant human sEH): 28.3 nM

Compound: CC(=O)N1CCC(NC(=O)NC2CCCCCC2)CC1 [Compound 1645, 1-(1-Acetyl-piperidin-4-yl)-3-cycloheptyl-urea]
IC50 [1]: 27.6 nM
AUC ([3]; 0.3 mg/kg): 3.68 µM·h

Compound: COC(=O)N1CCC(NC(=O)NC23CC4CC(CC(C4)C2)C3)CC1 [Compound 1702, 4-(3-Adamantan-1-yl-ureido)-piperidine-1-carboxylic acid methyl ester]
IC50 ([1]; recombinant human sEH): 0.9 nM
AUC ([3]; 0.3 mg/kg): 0.09 µM·h

Compound: Morpholine-4-carboxylic acid 2-methyl-biphenyl-3-ylmethyl ester [Compound 1562]
IC50 ([1]; recombinant human sEH): 12000 nM
